# Reference: US20230234936A1, “COMPOUND FOR TARGETING AND DEGRADING PROTEIN, AND PREPARATION METHOD THEREFOR AND USE THEREOF” (SHANGHAI LEADINGTAC PHARMACEUTICAL CO., LTD., priority 2020, published 2023)
# How the values were obtained:
# [1] = system: Interleukin-6 (IL-6) in LPS-induced human PBMC; assay: Cytokine secretion of LPS-induced human PBMC, IL-6 AlphaLISA detection; format: cell-based; details: inhibition of IL-6, compound 1 hour or 20 hours, then LPS 100 ng/mL 5 hours
# Description: Frozen human PBMC (Milestone, PB010C) was resuspended to RPMI 1640 medium (Gibco, A1049101) after resuscitation, supplemented with 10% fetal bovine serum (Gibco, 10099141), 100 U/mL penicillin and 100 μg/mL streptomycin (Gibco, 15140122). On the same day, 150 μL of PBMC was spread in each well of a 96-well transparent cell plate (Labserv, 310109008), so that the cell density was 2×10^5 cells/well. Then 50 μL diluted compound solution was added to the corresponding cell-covered wells to make the final concentration of the compound in the range of 0.026-10000 nM. The final concentration of DMSO was 0.25%. After the drug-treated cell plate was cultured at 37° C. for 1 hour or 20 hours in a 5% CO2 incubator, 10 μL LPS (0111:B4) (Sigma, L4391) was added with a final concentration of 100 ng/mL. The cell plate was again placed in a 5% CO2 incubator at 37° C. for 5 hours, centrifuged at 2000 rpm for 10 minutes, and 100 μL cell supernatant was taken from each well and transferred to a new 96-well transparent cell plate for cytokine concentration test, which was frozen at −80° C. to be tested.
# The concentration of IL-6 in the supernatant of LPS-induced human PBMC cells was determined using interleukin-6 (IL-6) AlphaLISA detection kit (PerkinElmer, AL223 C).
# According to the product instructions, IL-6 standard solutions with different concentrations were prepared in the concentration range of […]. 2 μL of IL-6 standard solution at various concentrations and the cell supernatant sample to be tested were taken, respectively added to white 384 well plates (PerkinElmer, 6007299), then a mixed solution of 8 μL of 5× anti-IL-6 receptor beads (final concentration: 10 μg/mL) and biotin-labeled anti-IL-6 antibody (final concentration 1 nM) was added to each well, and incubated at 23° C. for 60 minutes. Finally, 10 μL of 2× streptavidin-labeled donor beads (final concentration: 40 μg/mL) were added to each well and incubated at 23° C. for 30 minutes in the absent of light. After the incubation, the AlphaLISA signal value was determined in the AlphaScreen standard setting mode on the microplate reader EnVision(PerkinElmer, 2105). The standard curve was drawn by the AlphaLISA signal value of each concentration IL-6 standard solution, and then based on the corresponding concentration on the standard curve for the AlphaLISA signal value of the sample to be tested, the IL-6 concentration of each cell lysis supernatant was determined. Compared with the IL-6 concentration of the control group, the inhibition rate of the compound at each concentration was calculated, and then IC50 value of the compound was calculated by fitting the nonlinear curve with the logarithmic concentration-inhibition rate by GraphPad Prism 7.
# [2] = molecular target: T1, IRAK4 protein in THP-1 cells (Homo sapiens, UniProt Q9NWZ3); assay: Degradation of IRAK4 in THP-1 cells (Western blot); format: cell-based; details: 24 hours, compound 1-3000 nM
# T1 construct: endogenous in cells; host or cells: THP-1
# T1 sequence (Q9NWZ3 1-460): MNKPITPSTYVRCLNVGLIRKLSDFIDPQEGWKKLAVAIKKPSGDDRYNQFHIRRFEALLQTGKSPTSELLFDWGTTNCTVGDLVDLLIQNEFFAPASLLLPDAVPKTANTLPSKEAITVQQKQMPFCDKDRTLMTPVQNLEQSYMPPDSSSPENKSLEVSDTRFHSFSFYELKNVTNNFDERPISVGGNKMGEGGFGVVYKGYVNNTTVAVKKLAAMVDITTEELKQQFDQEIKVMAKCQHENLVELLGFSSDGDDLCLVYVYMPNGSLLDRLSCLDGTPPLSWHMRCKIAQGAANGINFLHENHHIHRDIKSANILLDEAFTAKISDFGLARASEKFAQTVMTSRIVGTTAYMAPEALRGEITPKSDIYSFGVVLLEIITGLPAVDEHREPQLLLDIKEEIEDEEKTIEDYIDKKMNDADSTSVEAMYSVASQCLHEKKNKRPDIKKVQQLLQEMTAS
# Procedure, shortened: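 THP-1 cells (5×10^5/well) treated 24 h with compound at 1–3000 nM final. IRAK4 in lysates quantified by Western blot, normalized to internal reference and compared with control to give degradation rate; DC50 and Dmax from nonlinear fit of log concentration.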
# IRAK4 kinase = molecular target: T2, IRAK4 kinase (Homo sapiens, UniProt Q9NWZ3); assay: IRAK4 kinase activity test (KinEASE-STK S1 HTRF kit); format: biochemical; details: 2.5 nM kinase, 1 μM biotinylated polypeptide substrate, 7 μM ATP, 37° C. 120 min
# T2 sequence (Q9NWZ3 1-460): T1 sequence (Q9NWZ3 1-460)
# Procedure, shortened: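 Compound in DMSO, serially diluted to 10000–0.038 nM final, incubated with 2.5 nM kinase, 1 μM biotinylated peptide substrate and 7 μM ATP at 37° C for 120 min. Eu-anti-phospho-Ser/Thr antibody plus streptavidin-XL665 stopped the reaction (1 h RT). HTRF 665/620 nm ratio gave % inhibition versus control; IC50 from nonlinear log-concentration fit.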
SMILES,DC50 [2] [nM],Dmax [2] [%],IC50 (IRAK4 kinase) [nM],IC50 [1] [nM]
"COc1cc2nn(C3CCN(CCN4CCC5(CC4)CCN(C(=O)c4ccc(OC)c(N6CCC(=O)NC6=O)c4)CC5)CC3)cc2cc1NC(=O)c1cccc(C(F)(F)F)n1 [Example 1, N-(2-(1-(2-(9-(3-(2,4-dioxotetrahydropyrimidin-1 (2H)-yl)-4-methoxybenzoyl)-3,9-diazaspiro[5.5]undec-3-yl)ethyl)piperidin-4-yl)-6-methoxy-2H-indazol-5-yl)-6-(trifluoromethyl)-2-pyridinecarboxamide]",3,94.6,2.5,4.9
"COc1cc2nn([C@H]3CC[C@H](CN(C)CCC4CCN(C(=O)c5ccc(Cl)c(N6CCC(=O)NC6=O)c5)CC4)CC3)cc2cc1NC(=O)c1cccc(C(F)(F)F)n1 [Example 49, N-(2-((1r,4r)-4-(((2-(1-(4-chloro-3-(2,4-dioxotetrahydro-pyrimidin-1 (2H)-yl)benzoyl)piperidin-4-yl)ethyl) (methyl)amino)methyl)cyclohexyl)-6-methoxy-2H-inda-zol-5-yl)-6-(tri-fluoromethyl) pyridinecarbox-amide]",1.8,99.2,3.4,3.7
"CN(CCC1CCN(C(=O)c2ccc(Cl)c(N3CCC(=O)NC3=O)c2)CC1)C[C@H]1CC[C@H](n2cc3cc(NC(=O)c4cccc(C(F)(F)F)n4)c(C(C)(C)O)cc3n2)CC1 [Example 55, N-(2-((1r,4r)-4-(((2-(1-(4-chloro-3-(2,4-dioxotetrahydro-pyrimidin-1 (2H)-yl)benzoyl)piperidin-4-yl)ethyl) (methyl)amino)methyl)cyclohexyl)-6-(2-hydroxyprop-2-yl)-2H-indazol-5-yl)-6-(trifluoro-methyl) pyridinecarbox-amide]",2.7,98.1,10.6,0.8
COc1cc2nn([C@H]3CC[C@H](N(C)C4CCC5(CC4)CCN(C(=O)c4ccc(Cl)c(N6CCC(=O)NC6=O)c4)CC5)CC3)cc2cc1NC(=O)c1cccc(C(F)(F)F)n1 [Example 56],3,97,3.6,3.2
"COc1cc2nn([C@H]3CC[C@H](CN(C)CCCCC4CCN(C(=O)c5ccc(Cl)c(N6CCC(=O)NC6=O)c5)CC4)CC3)cc2cc1NC(=O)c1cccc(C(F)(F)F)n1 [Example 67, N-(2-((1r,4r)-4-(((4-(1-(4-chloro-3-(2,4-dioxotetrahydro-pyrimidin-1 (2H)-yl)benzoyl)piperidin-4-yl)butyl) (methyl)amino)methyl)cyclohexyl)-6-methoxy-2H-indazol-5-yl)-6-(trifluoro-methyl) pyridinecarbox-amide]",11.5,99.2,5.13,

# Continued, in another order:
DC50 [2] [nM],Dmax [2] [%],IC50 (IRAK4 kinase) [nM],SMILES,IC50 [1] [nM]
0.8,99.4,16.2,"CC(C)(O)c1cc2nn(C3CCN(CCC4CCC5(CC4)CCN(C(=O)c4ccc(Cl)c(N6CCC(=O)NC6=O)c4)CC5)CC3)cc2cc1NC(=O)c1cccc(C(F)(F)F)n1 [Example 28, N-(2-(1-(2-(3-(4-chloro-3-(2,4-dioxotetrahydro-pyrimidin-1 (2H)-yl)benzoyl)-3-azaspiro [5.5]undec-9-yl)ethyl)piperidin-4-yl)-6-(2-hydroxyprop-2-yl)-2H-indazol-5-yl)-6-(trifluoro-methyl) pyridinecarbox-amide]",4.7
5.1,96.9,28.5,COc1cc2nn(C3CCN(CC4CCC5(CC4)CCN(C(=O)c4ccc(Cl)c(N6CCC(=O)NC6=O)c4)CC5)CC3)cc2cc1NC(=O)c1cccc(C(F)(F)F)n1 [Example 32],9.7
2.9,97.7,28.1,"CC(C)(O)c1cc2nn(C3CCN(CC4CCC5(CC4)CCN(C(=O)c4ccc(F)c(C6CCC(=O)NC6=O)c4)CC5)CC3)cc2cc1NC(=O)c1cccc(C(F)(F)F)n1 (stereo not drawn) [Example 41, N-(2-(1-((3-(3-(2,6-dioxopiperidin-3-yl)-4-fluoro-benzoyl)-3-azaspiro [5.5]undec-9-yl)methyl)piperidin-4-yl)-6-(2-hydroxyprop-2-yl)-2H-inda-zol-5-yl)-6-(triflu-oromethyl) pyridinecarbox-amide]",5.1
5.9,96.3,6.3,"COc1cc2nn([C@H]3CC[C@H](CN(C)C4CCC5(CC4)CCN(C(=O)c4ccc(Cl)c(N6CCC(=O)NC6=O)c4)CC5)CC3)cc2cc1NC(=O)c1cccc(C(F)(F)F)n1 [Example 53, N-(2-((1r,4r)-4-(((3-(4-chloo-3-(2,4-dioxotetrahydro-pyrimidin-1 (2H)-yl)benzoyl)-3-azaspiro [5.5]undec-9-yl) (methyl)amino)methyl)cyclohexyl)-6-methoxy-2H-inda-zol-5-yl)-6-(triflu-oromethyl) pyridinecarbox-amide]",2.8
1.4,98.9,7.5,"COc1cc2nn([C@H]3CC[C@H](CCN4CCC5(CC4)CCN(C(=O)c4ccc(Cl)c(N6CCC(=O)NC6=O)c4)CC5)CC3)cc2cc1NC(=O)c1cccc(C(F)(F)F)n1 [Example 54, N-(2-((1r,4r)-4-(2-(9-(4-chloro-3-(2,4-dioxo-tetrahydropyrim-idin-1 (2H)-yl)benzoyl)-3,9-diazaspiro[5.5]undec-3-yl)ethyl)cyclohexyl)-6-methoxy-2H-inda-zol-5-yl)-6-(tri-fluoromethyl) pyridinecarbox-amide]",2.6
3.7,97,114,"CC(C)(C)C(=O)OCN1C(=O)CCN(c2cc(C(=O)N3CCC4(CCC(CCN5CCC(n6cc7cc(NC(=O)c8cccc(C(F)(F)F)n8)c(C(C)(C)O)cc7n6)CC5)CC4)CC3)ccc2Cl)C1=O [Example 71, methyl (3-(2-chloro-5-(9-(2-(4-(6-(2-hydroxyprop-2-yl)-5-(6-(trifluoromethyl)pyridinecarboxamido)-2H-indazol-2-yl)piperidin-1-yl)ethyl)-3-azaspiro[5.5]undecyl-3-carbonyl)phenyl)-2,6-dioxotetrahydropyrimidin-1 (2H)-yl) pivalate]",
